From US20130040935A1, “CYCLIC KETO-ENOLS FOR THERAPY” (BAYER INTELLECTUAL PROPERTY GMBH, priority 2010, published 2013)
Read-outs that look alike come from different tables or passages of the source.

Tests used:
[1] = tested on: malonyl-CoA in a tumour (human MCF-7 breast cancer cells); test: Mode-of-action experiment: intratumour malonyl-CoA in MCF-7 tumours after oral administration; format: in vivo, female nude mice (NMRI-nude (nu/nu)); settings: Mus musculus, after 7 h
Procedure: Mode-of-Action Experiment
Prior to the determination of the activity in the MCF-7 model, some of the test substances were examined in a “mode of action” experiment. The principle of this experiment is that short-term application of a test substance capable of inhibiting ACC1 and/or ACC2 in a living organism after oral administration reduces malonyl-CoA in a tumour. To this end, in the experiment 2 million human MCF-7 breast cancer cells were injected subcutaneously into female nude mice (NMRI-nude (nu/nu) mice, Taconic M&B A/S, 1 day beforehand administration of a pellet for the release of oestrogen over a period of at least 60 days). Once the tumour extended to an area of about 60-70 mm^2, the test substance was administered orally over a period of 1-3 days, and at defined points in time the intratumour content of malonyl-CoA was then determined and compared to the vehicle control. The method is described in Anal Chem 2008 Aug. 1; 80(15):5736-42. Epub 2008 Jul. 9.).

[2] = tested on: MCF7; test: Cell proliferation assay (CellTiter-Glo, 96 h), MCF7; format: cell-based; settings: Homo sapiens
Outline: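 Growth inhibition in percent after 96 h compound exposure at 37° C, CellTiter-Glo luminescence, with day-0 plate values subtracted from treated and untreated 96 h readings. Seeding density 2000-5000 cells/well depending on cell line, overnight attachment before dosing.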

[3] = biological target: human ACC2 (acetyl-coenzyme A carboxylase 2) (Homo sapiens, UniProt O00763); test: Human ACC2 enzyme assay, Assay B2 (ADP-Glo);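 note: human ACC2 activity read as ADP product, detected by luciferase glow luminescence after residual ATP removal, enzyme near 2 ng/µl in linear range, detection steps at 22 °C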
human ACC2 (acetyl-coenzyme A carboxylase 2), sequence (O00763 27-2458 limits assumed): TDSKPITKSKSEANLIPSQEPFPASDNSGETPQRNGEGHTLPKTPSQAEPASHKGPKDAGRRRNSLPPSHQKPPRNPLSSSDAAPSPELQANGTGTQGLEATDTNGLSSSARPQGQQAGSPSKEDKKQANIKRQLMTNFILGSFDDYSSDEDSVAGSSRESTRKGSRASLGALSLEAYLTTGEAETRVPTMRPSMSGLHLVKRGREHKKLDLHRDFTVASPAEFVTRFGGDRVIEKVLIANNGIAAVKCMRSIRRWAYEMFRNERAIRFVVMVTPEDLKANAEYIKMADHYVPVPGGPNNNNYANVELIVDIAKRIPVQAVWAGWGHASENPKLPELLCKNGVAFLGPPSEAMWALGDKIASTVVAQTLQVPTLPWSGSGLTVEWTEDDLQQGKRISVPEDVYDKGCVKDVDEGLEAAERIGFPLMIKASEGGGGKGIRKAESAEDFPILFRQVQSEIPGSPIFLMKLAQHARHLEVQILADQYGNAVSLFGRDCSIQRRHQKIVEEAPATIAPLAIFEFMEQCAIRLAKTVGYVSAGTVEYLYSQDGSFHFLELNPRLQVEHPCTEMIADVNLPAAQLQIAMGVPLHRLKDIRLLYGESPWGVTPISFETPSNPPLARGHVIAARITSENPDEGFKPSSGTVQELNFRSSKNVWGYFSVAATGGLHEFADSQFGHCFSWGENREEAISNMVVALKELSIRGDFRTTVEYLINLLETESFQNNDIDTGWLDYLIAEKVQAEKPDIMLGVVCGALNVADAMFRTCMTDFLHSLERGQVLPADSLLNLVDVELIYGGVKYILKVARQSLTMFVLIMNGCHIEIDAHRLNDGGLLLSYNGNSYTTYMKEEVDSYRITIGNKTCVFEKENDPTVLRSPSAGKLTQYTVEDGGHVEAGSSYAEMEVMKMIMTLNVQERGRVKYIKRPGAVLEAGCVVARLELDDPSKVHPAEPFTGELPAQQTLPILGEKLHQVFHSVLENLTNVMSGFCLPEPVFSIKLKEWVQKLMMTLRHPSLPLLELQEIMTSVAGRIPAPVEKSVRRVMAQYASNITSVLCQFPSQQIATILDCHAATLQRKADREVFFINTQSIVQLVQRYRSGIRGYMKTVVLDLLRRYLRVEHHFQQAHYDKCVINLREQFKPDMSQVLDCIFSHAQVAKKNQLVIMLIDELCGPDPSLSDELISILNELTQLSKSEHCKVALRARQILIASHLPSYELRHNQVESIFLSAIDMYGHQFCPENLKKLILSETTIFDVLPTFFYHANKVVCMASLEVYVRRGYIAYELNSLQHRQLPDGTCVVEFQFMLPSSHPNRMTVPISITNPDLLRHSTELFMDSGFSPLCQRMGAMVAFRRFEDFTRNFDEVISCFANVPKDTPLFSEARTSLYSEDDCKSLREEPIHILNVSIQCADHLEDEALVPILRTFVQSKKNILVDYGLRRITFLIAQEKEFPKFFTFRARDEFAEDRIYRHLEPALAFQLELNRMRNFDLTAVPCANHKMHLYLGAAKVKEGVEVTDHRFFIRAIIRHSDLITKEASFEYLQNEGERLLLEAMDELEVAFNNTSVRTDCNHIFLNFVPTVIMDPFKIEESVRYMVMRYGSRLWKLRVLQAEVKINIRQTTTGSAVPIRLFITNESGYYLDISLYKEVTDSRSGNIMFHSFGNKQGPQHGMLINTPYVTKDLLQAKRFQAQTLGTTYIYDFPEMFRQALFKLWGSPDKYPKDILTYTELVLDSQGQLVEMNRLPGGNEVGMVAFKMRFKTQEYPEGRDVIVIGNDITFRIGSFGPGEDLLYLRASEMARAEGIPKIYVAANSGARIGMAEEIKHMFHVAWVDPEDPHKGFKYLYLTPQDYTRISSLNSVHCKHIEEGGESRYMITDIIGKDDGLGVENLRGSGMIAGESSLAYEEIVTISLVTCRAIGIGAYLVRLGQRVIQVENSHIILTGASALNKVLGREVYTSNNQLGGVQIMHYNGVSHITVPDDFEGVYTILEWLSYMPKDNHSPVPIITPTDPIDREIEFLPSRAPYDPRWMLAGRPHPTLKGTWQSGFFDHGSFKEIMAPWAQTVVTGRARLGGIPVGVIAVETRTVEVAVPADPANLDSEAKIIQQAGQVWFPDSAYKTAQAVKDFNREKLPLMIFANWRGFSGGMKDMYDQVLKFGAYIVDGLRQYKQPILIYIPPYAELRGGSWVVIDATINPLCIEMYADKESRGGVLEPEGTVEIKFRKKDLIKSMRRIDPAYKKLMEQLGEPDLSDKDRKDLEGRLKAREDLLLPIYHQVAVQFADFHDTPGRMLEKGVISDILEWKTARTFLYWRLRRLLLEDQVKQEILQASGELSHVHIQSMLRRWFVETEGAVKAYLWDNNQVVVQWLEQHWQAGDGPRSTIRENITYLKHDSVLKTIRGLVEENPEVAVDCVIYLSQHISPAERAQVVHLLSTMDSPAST
Procedure: The hACC2-inhibitory action of the substances of the present invention was measured in the hACC2 assay described in the paragraphs below.
Essentially, the enzyme activity is measured by quantifying the adenosine diphosphate (ADP) formed as a byproduct of the enzyme reactions using the ADP-Glo™ detection system from Promega. In this test, initially the adenosine triphosphate (ATP) not consumed in the enzyme reaction is converted quantitatively with an adenylate cyclase (“ADP-GLO reagent”) into cAMP, the adenylate cyclase is then stopped and (“kinase detection reagent”) the ADP formed is subsequently converted into ATP, which is converted in a luciferase-based reaction into a glow luminescence signal.
The concentration of the hACC2 was adapted to the respective activity of the enzyme and adjusted such that the assay operated in the linear range. Typical concentrations were in the range of 2 ng/μl. […] The amount of light emitted was taken as a measure for the amount of ADP formed and thus for the enzyme activity of the hACC2.

[4] = biological target: T1, human ACC1 (acetyl-coenzyme A carboxylase alpha transcript variant 1) (Homo sapiens, UniProt Q13085); test: Human ACC1 enzyme assay, Assay B1 (ADP-Glo); format: biochemical
T1 construct: FLAG (C); made in house; host or cells: baculovirus-infected insect cells (Hi5)

[5] = tested on: KM12; test: Cell proliferation assay (CellTiter-Glo, 96 h), KM12; format: cell-based; settings: Homo sapiens, 96-hour incubation
Procedure: In accordance with the invention, the substances were tested in cell-based assays for the ability of the substances of inhibiting tumour cell proliferation after a 96-hour incubation with the substance. Cell viability was tested using the CellTiter-Glo® luminescent cell viability assay (Promega). The cells were sown at a density of 2000-5000 cells/well (depending on the cell line) in 100 μl growth medium on 96-well microtitre plates. For each cell line examined, cells were sown on a separate plate to determine the luminescence at t=0 hours and t=96 hours. After overnight incubation at 37° C., the luminescence values for the t=0 samples were determined. The dose plates for the t=96 hours points in time were treated with substances diluted with growth medium. The cells were then incubated at 37° C. for 96 hours, and the luminescence values for the t=96 hours sample were then determined. For data analysis, the t=0 values were subtracted from the t=96 hour values for treated and untreated samples. The differences in luminescence in percent between substance-treated samples and control values were used to determine the growth inhibition in percent.
The substances were tested in the following cell lines which represent the stated indications in an exemplary manner: […]

[6] = biological target: recombinant human ACC1 (Homo sapiens, UniProt Q13085); test: Human ACC1 enzyme assay, Assay A1 (HTRF ADP immunoassay);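 note: ADP generated by the enzyme quantified via competitive time-resolved FRET, read as europium cryptate to d2 energy transfer after 1 h at 22 °C with labelled ADP tracer and anti-ADP antibody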
Procedure: The inhibitory activity of the substances of this invention with regard to acetyl-CoA carboxylase 1 (ACC1) was measured using the ACC1 assay described in the paragraphs below. The basic principle of the assay is the measurement of adenosine diphosphate (ADP), which is formed as a by-product, by means of an HTRF®-based competitive immunoassay (HTRF=Homogeneous Time Resolved Fluorescence).
Typical concentrations were in the range of 2.5 ng/μl.
The amount of complex between d2-labelled ADP and europium cryptate-labelled anti-ADP antibody was then determined by measuring the resonance energy transfer from the europium cryptate to d2.

[7] = biological target: acetyl-CoA carboxylase 2 (ACC2) (Homo sapiens, UniProt O00763); test: Human ACC2 enzyme assay, Assay A2 (HTRF ADP immunoassay);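 note: ADP generated by ACC2 quantified via competitive time-resolved FRET between europium cryptate anti-ADP antibody and d2-tagged ADP, enzyme kept in linear range near 0.6 ng/µl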
acetyl-CoA carboxylase 2 (ACC2), sequence (O00763 39-2458 limits assumed): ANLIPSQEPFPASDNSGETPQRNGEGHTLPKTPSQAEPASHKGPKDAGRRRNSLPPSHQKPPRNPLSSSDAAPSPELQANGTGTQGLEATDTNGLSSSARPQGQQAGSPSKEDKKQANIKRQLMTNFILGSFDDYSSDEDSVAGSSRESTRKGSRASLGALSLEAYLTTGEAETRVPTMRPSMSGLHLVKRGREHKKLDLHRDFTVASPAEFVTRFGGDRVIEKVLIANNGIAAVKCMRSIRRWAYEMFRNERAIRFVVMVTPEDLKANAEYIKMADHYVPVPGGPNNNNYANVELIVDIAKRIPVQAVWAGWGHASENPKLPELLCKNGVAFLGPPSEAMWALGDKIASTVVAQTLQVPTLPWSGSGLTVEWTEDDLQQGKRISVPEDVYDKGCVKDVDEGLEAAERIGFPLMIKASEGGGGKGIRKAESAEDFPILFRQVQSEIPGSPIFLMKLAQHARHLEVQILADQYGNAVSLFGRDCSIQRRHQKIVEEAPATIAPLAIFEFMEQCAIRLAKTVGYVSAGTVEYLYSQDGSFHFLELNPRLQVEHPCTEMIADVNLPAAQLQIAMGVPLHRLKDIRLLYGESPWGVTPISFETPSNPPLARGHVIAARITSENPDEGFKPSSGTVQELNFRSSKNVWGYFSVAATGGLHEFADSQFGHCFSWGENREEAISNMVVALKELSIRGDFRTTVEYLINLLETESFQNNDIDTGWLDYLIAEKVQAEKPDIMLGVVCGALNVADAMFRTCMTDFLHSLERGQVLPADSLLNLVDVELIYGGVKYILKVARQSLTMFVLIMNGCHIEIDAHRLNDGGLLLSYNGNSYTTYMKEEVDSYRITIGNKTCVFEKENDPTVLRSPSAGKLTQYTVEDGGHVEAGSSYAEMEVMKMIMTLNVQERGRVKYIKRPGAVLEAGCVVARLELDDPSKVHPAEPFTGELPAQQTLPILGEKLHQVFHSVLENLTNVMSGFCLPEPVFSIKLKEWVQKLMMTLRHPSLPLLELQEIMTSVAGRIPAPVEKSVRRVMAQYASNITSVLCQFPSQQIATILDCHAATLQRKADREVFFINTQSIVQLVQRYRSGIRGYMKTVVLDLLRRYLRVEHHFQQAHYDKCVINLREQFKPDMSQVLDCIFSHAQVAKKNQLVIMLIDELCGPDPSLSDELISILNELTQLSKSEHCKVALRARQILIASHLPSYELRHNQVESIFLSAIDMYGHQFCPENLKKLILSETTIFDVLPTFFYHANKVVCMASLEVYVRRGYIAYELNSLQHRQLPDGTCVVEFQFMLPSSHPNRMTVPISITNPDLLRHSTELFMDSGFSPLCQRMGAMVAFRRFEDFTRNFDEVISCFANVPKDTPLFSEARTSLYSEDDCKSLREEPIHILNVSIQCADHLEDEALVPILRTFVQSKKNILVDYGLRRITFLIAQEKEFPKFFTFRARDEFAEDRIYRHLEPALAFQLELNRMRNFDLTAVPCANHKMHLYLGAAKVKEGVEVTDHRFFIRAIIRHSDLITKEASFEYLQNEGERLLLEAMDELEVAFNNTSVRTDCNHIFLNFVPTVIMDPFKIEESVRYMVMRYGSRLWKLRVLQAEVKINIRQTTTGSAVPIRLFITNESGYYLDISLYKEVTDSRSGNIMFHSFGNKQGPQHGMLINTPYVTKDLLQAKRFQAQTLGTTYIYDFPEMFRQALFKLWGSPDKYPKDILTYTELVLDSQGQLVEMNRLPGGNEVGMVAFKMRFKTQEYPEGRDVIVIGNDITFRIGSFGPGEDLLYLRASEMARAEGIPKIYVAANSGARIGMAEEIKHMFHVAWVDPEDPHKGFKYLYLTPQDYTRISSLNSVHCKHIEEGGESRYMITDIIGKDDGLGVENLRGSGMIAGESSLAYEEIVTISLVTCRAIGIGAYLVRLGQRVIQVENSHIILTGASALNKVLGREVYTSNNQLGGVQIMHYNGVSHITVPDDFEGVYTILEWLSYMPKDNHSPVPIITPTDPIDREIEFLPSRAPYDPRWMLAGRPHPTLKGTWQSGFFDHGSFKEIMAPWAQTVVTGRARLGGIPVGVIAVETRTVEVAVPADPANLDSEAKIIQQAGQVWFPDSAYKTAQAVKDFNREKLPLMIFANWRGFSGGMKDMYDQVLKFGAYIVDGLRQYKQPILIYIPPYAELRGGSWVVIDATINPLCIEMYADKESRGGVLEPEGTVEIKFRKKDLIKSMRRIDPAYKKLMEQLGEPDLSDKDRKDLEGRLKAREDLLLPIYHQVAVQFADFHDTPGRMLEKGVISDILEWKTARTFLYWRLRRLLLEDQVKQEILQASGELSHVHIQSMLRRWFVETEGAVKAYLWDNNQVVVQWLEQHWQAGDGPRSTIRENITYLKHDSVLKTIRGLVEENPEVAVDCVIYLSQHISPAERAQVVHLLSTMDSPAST

[8] = MCF7, Table 7, 96-hour incubation
[9] = Assay B1, read-out: ACC 1 (=B1) IC50
[10] = Assay B1, ADP-Glo, read-out: ACC 1 (=B1) IC50

Row | IC50 [4, 9] [nM] | SMILES | inhibition in vivo at 10 mg/kg ([1]; MCF7, po, 10 mg/kg, vs Vehicle) [%] | IC50 [2, 8] [nM] | IC50 [3] [nM] | IC50 [4] [nM] | IC50 [5] [nM] | IC50 [6] [nM] | IC50 [7] [nM] | IC50 [4, 10] [nM] | inhibition in vivo at 10 mg/kg ([1]; MCF7, 10 mg/kg oral, MCF-7 tumour in nude mice, vs vehicle) [%] | IC50 ([2]; MCF7 cells) [nM]
1 |  | CO[C@H]1CC[C@]2(CC1)NC(=O)C(c1cc(-c3ccc(Cl)cc3)ccc1C)=C2O [1-2, (5s,8s)-3-(4′-chloro-4-methylbiphenyl-3-yl)-4-hydroxy-8-methoxy-1-azaspiro[4.5]dec-3-en-2-one] | 96 | 57 | 822 |  |  |  |  |  |  | 
2 | 246 | Cc1ccc(-c2ccc(Cl)cc2)cc1C1=C(O)C2(CCCOC2)NC1=O (stereo not shown) [1-5, 3-(4′-chloro-4-methylbiphenyl-3-yl)-4-hydroxy-7-oxa-1-azaspiro[4.5]dec-3-en-2-one] | 82 | 230 | 11000 |  |  |  |  |  |  | 
3 |  | COC1CCC2(CC1)NC(=O)C(c1cc(-c3ccc(Cl)cc3)c(C)cc1C)=C2O (stereo not shown) [1-7, 3-(4′-chloro-4,6-dimethylbiphenyl-3-yl)-4-hydroxy-8-methoxy-1-azaspiro[4.5]dec-3-en-2-one] | 89 | 57 | 328 | 1460 |  |  |  |  |  | 
4 |  | COC1CCC2(CC1)NC(=O)C(c1cc(-c3ccc(Cl)cc3)ccc1Cl)=C2O (stereo not shown) [1-11, 3-(4,4′-dichlorobiphenyl-3-yl)-4-hydroxy-8-methoxy-1-azaspiro[4.5]dec-3-en-2-one] | 87 | 124 | 4470 | 157 |  |  |  |  |  | 
5 | 230 | Cc1ccc(-c2ccc(Cl)cc2)cc1C1=C(O)C2(CCC(C)(C)CC2)NC1=O [1-20, 3-(4′-chloro-4-methylbiphenyl-3-yl)-4-hydroxy-8,8-dimethyl-1-azaspiro[4.5]dec-3-en-2-one] | 87 | 40 | 1130 |  |  |  |  |  |  | 
6 | 230 | Cc1ccc(-c2ccc(Cl)cc2)cc1C1=C(O)C2(CCC(C(C)C)CC2)NC1=O (stereo not shown) [1-24, 3-(4′-chloro-4-methylbiphenyl-3-yl)-4-hydroxy-8-(propan-2-yl)-1-azaspiro[4.5]dec-3-en-2-one] | 91 | 27 | 517 |  |  |  |  |  |  | 
7 |  | O=C1N[C@]2(CC[C@@H](OCC(F)(F)F)CC2)C(O)=C1c1cc(-c2ccc(Cl)cc2)ccc1Cl [1-29, (5s,8s)-3-(4,4′-dichlorobiphenyl-3-yl)-4-hydroxy-8-(2,2,2-trifluoroethoxy)-1-azaspiro[4.5]dec-3-en-2-one] | 93 | 32 | 2620 | 153 | 132 |  |  |  |  | 
8 | 481 | Cc1ccc(-c2ccc(Cl)cc2)c(C)c1C1=C(O)[C@]2(CC[C@H](OCC(F)(F)F)CC2)NC1=O [1-30, (5s,8s)-3-(4′-chloro-2,4-dimethylbiphenyl-3-yl)-4-hydroxy-8-(2,2,2-trifluoroethoxy)-1-azaspiro[4.5]dec-3-en-2-one] | 82 | 48 | 976 |  |  |  |  |  |  | 
9 |  | Cc1ccc(-c2ccc(F)c(F)c2)cc1C1=C(O)C2(CCC3(CCCO3)CC2)NC1=O (stereo not shown) [1-35, 11-(3′,4′-difluoro-4-methylbiphenyl-3-yl)-12-hydroxy-1-oxa-9-azadispiro[4.2.4.2]tetradec-11-en-10-one] | 31 | 94 | 6910 | 388 |  |  |  |  |  | 
10 |  | COCC1CCC2(CC1)NC(=O)C(c1c(C)ccc(-c3ccc(Cl)cc3)c1C)=C2O (stereo not shown) [1-53, 3-(4′-chloro-2,4-dimethylbiphenyl-3-yl)-4-hydroxy-8-(methoxymethyl)-1-azaspiro[4.5]dec-3-en-2-one] | 43 | 70 | 632 | 243 |  |  |  |  |  | 
11 |  | COCC1CCC2(CC1)NC(=O)C(c1cc(-c3ccc(Cl)cc3)ccc1Cl)=C2O (stereo not shown) [1-54, 3-(4,4′-dichlorobiphenyl-3-yl)-4-hydroxy-8-(methoxymethyl)-1-azaspiro[4.5]dec-3-en-2-one] | 61 | 88 | 1350 | 157 |  |  |  |  |  | 
12 | 163 | Cc1ccc(-c2ccc(Cl)cc2)cc1C1=C(O)[C@]2(CC[C@H](C)CC2)NC1=O [1-76, 3-(4′-chloro-4-methylbiphenyl-3-yl)-4-hydroxy-8-methyl-1-azaspiro[4.5]dec-3-en-2-one] | 96 |  | 432 |  |  |  |  |  |  | 
13 |  | CO[C@]1(C)CC[C@]2(CC1)NC(=O)C(c1c(C)ccc(-c3ccc(Cl)cc3)c1C)=C2O [1-87, (5r,8r)-3-(4′-chloro-2,4-dimethylbiphenyl-3-yl)-4-hydroxy-8-methoxy-8-methyl-1-azaspiro[4.5]dec-3-en-2-one] | 71 |  | 10500 | 378 |  | 540 | 7300 |  |  | 
14 |  | COC[C@H]1CC[C@]2(CC1)NC(=O)C(c1cc(-c3ccc(F)c(F)c3)ccc1C)=C2O [1-112, (5s,8s)-3-(3′,4′-Difluoro-4-methylbiphenyl-3-yl)-4-hydroxy-8-(methoxymethyl)-1-azaspiro[4.5]dec-3-en-2-one] |  | 79 | 8430 | 200 | 174 | 167 | 3910 |  |  | 
15 |  | CO[C@H]1CC[C@]2(CC1)NC(=O)C(c1cc(-c3ccc(Cl)cc3)ccc1Cl)=C2O [1-120, (5s,8s)-3-(4,4′-Dichlorobiphenyl-3-yl)-4-hydroxy-8-methoxy-1-azaspiro[4.5]dec-3-en-2-one] |  | 70 | 2260 | 145 | 714 | 250 | 1280 |  |  | 
16 |  | CO[C@H]1CC[C@]2(CC1)NC(=O)C(c1cc(-c3ccc(Cl)cc3Cl)ccc1C)=C2O [1-143, (5s,8s)-3-(2′,4′-Dichloro-4-methylbiphenyl-3-yl)-4-hydroxy-8-methoxy-1-azaspiro[4.5]dec-3-en-2-one] |  | 111 | 2150 | 161 |  | 282 | 1020 |  |  | 
17 | 115 | CCO[C@H]1CC[C@]2(CC1)NC(=O)C(c1cc(-c3ccc(Cl)cc3)ccc1C)=C2O [1-146, (5s,8s)-3-(4′-Chloro-4 methylbiphenyl-3-yl)-8-ethoxy-4-hydroxy-1-azaspiro[4.5]dec-3-en-2-one] |  | 47 | 679 |  |  | 197 | 455 |  |  | 
18 | 150 | CCO[C@H]1CC[C@@]2(CC1)NC(=O)C(c1cc(-c3ccc(Cl)cc3)ccc1C)=C2O [1-147, (5r,8r)-3-(4′-Chloro-4 methylbiphenyl-3-yl)-8-ethoxy-4-hydroxy-1-azaspiro[4.5]dec-3-en-2-one] |  | 174 | 2030 |  |  | 195 | 1250 |  |  | 
19 |  | Cc1ccc(-c2ccc(Cl)cc2)cc1C1=C(O)C2(CCC(OCC(F)(F)F)CC2)OC1=O (stereo not shown) [2-33, 3-(4′-chloro-4-methylbiphenyl-3-yl)-4-hydroxy-8-(2,2,2-trifluoroethoxy)-1-oxaspiro[4.5]dec-3-en-2-one] |  |  | 5000 |  |  |  |  | 227 | 39 | 246
20 |  | CCCOC1CCC2(CC1)OC(=O)C(c1cc(-c3ccc(Cl)cc3)c(C)cc1C)=C2O (stereo not shown) [2-47, 3-(4′-chloro-4,6-dimethylbiphenyl-3-yl)-4-hydroxy-8-propoxy-1-oxaspiro[4.5]dec-3-en-2-one] |  |  | 389 |  |  | 592 | 453 | 402 |  | 302
